Results published in patent US11655216B2 (priority 2016, dated 2023).
Read-outs that look alike come from different tables or passages of the source.

How the values were obtained:
[1] = target: T1, glutathione-S-transferase (GST) tagged LXRbeta LBD (ligand binding domain) (Homo sapiens, UniProt P55055); assay: LanthaScreen TR-FRET Liver X Receptor Coactivator Assay, LXR beta; format: biochemical; settings: for EC50: LXR beta IP, potency (Inflection Point), compound-induced co-activator recruitment, TR-FRET; for Emax: read-out: LXR beta actiivty at max dose, efficacy (% Emax) in relation to reference dual agonist T0901317
T1 construct: purchased Invitrogen pv4658
T1 sequence (P55055 222-460 limits assumed): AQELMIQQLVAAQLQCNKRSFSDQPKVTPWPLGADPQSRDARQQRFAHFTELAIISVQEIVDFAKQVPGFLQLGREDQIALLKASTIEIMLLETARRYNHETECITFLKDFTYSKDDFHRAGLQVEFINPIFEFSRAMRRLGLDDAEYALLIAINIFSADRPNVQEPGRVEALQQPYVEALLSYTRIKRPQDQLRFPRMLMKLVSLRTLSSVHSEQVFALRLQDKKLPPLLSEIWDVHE
In short: (§1)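 TR-FRET coactivator recruitment read-out: compounds first received either LBD, followed by a mix of terbium-labelled anti-GST antibody and fluorescein coactivator peptide. Signal measured by time-resolved FRET once plates had incubated at room temperature.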

[2] = target: T2, glutathione-S-transferase (GST) tagged LXRalpha LBD (ligand binding domain) (Homo sapiens, UniProt Q13133); assay: biochemical
T2 construct: purchased Invitrogen pv4655
T2 sequence (Q13133 209-447 limits assumed): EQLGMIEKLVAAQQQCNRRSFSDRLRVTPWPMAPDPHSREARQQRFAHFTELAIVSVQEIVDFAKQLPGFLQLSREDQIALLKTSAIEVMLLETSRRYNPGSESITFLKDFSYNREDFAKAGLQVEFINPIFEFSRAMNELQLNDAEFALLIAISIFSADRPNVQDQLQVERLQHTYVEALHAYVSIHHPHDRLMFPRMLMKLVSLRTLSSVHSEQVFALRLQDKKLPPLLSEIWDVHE
In short: as §1

[3] = LXR alpha IP, potency (Inflection Point), compound-induced co-activator recruitment, TR-FRET
[4] = read-out: LXR alpha actiivty at max dose, efficacy (% Emax) in relation to reference dual agonist T0901317
[5] = potency (Inflection Point), compound-induced co-activator recruitment, TR-FRET
[6] = efficacy (% Emax) in relation to reference dual agonist T0901317, read-out: LXR alpha actiivty at max dose
[7] = potency (Inflection Point), compound-induced co-activator recruitment, TR-FRET, read-out: LXR alpha IP
[8] = read-out: LXR alpha actiivty at max dose

| Structure (SMILES) | EC50 [1] [nM] | Emax [1] [%] | EC50 [2, 3] [nM] | Emax [2, 4] [%] | LXR alpha IP [2, 5] | EC50 [2, 7] [nM] | EC50 ([2]; LXR alpha IP) [nM] | Emax [2, 8] [%] | Emax [2, 6] [%] |
| --- | --- | --- | --- | --- | --- | --- | --- | --- | --- |
| CN(C)C(=O)c1ccc(OCC[C@@H]2CC23CCN(C(=O)C2(c4ccccc4Br)CCC2)CC3)cc1Cl (single isomer, unassigned) [Example 12-17, (S or R)-4-(2-(6-(1-(2-bromophenyl)cyclobutanecarbonyl)-6-azaspiro[2.5]octan-1-yl)ethoxy)-2-chloro-N,N-dimethylbenzamide] | 9 | 79 | 166 | 35 | – | – | – | – | – |
| CN(C)C(=O)c1ccc(OCCC2CC23CCN(S(=O)(=O)C(C)(C)c2ccccc2)CC3)cc1Cl (single isomer, unassigned) [Example 12-18, (S or R)-2-chloro-N,N-dimethyl-4-(2-(6-(2-phenylpropan-2-ylsulfonyl)-6-azaspiro[2.5]octan-1-yl)ethoxy)benzamide] | 80 | 26 | 1180 | 27 | – | – | – | – | – |
| CN(C)C(=O)c1ccc(OCCC2CC23CCN(C(=O)C2(c4cncnc4)CCC2)CC3)cc1Cl (single isomer, unassigned) [Example 12-19, (S or R)-2-chloro-N,N-dimethyl-4-(2-(6-(1-(pyrimidin-5-yl)cyclobutanecarbonyl)-6-azaspiro[2.5]octan-1-yl)ethoxy)benzamide] | 426 | 12 | – | 14 | No IP | – | – | – | – |
| CN(C)C(=O)c1ccc(OCCC2CC23CCN(C(=O)C(C)(C)c2cccc(Br)n2)CC3)cc1Cl (single isomer, unassigned) [Example 12-20, (S or R)-4-(2-(6-(2-(6-bromopyridin-2-yl)-2-methylpropanoyl)-6-azaspiro[2.5]octan-1-yl)ethoxy)-2-chloro-N,N-dimethylbenzamide] | 47 | 32 | – | 0 | No IP | – | – | – | – |
| CN(C)C(=O)c1ccc(OCC[C@@H]2CC23CCN(C(=O)[C@](N)(c2ccccc2)C(F)(F)F)CC3)cc1Cl (single isomer, unassigned) [Example 12-21, 4-(2-((S or R)-6-((R or S)-2-amino-3,3,3-trifluoro-2-phenylpropanoyl)-6-azaspiro[2.5]octan-1-yl)ethoxy)-2-chloro-N,N-dimethylbenzamide] | 42 | 47 | 1400 | 23 | – | – | – | – | – |
| CC(C[C@H]1CC12CCN(C(=O)C1(c3ccccc3)CCC1)CC2)Oc1ccc(C(=O)N(C)C)c(Cl)c1 (single isomer, unassigned) [Example 13-1, 2-chloro-N,N-dimethyl-4-((S or R)-1-((R or S)-6-(1-phenylcyclobutanecarbonyl)-6-azaspiro[2.5]octan-1-yl)propan-2-yloxy)benzamide] | 87 | 110 | – | – | – | 762 | – | – | 25 |
| CN(C)C(=O)c1ccc(OCCC[C@H]2CC23CCN(C(=O)[C@@](O)(c2ccccc2)C(F)(F)F)CC3)cc1Cl (single isomer, unassigned) [Example 14-1, 2-chloro-N,N-dimethyl-4-(3-((S or R)-6-((S or R)-3,3,3-trifluoro-2-hydroxy-2-phenylpropanoyl)-6-azaspiro[2.5]octan-1-yl)propoxy)benzamide] | 65 | 99 | – | – | – | – | 765 | 9 | – |
| CN(C)C(=O)c1ccc(OCCCC2CC23CCN(C(=O)C2(c4ccccc4)CCCC2)CC3)cc1Cl (single isomer, unassigned) [Example 14-2, (R or S)-2-chloro-N,N-dimethyl-4-(3-(6-(1-phenylcyclopentanecarbonyl)-6-azaspiro[2.5]octan-1-yl)propoxy)benzamide] | 28 | 86 | 424 | 17 | – | – | – | – | – |
| COc1ccccc1[C@@](O)(C(=O)N1CCC2(CC1)C[C@H]2CCCOc1ccc(C(=O)N(C)C)c(Cl)c1)C(F)(F)F (single isomer, unassigned) [Example 14-3, 2-chloro-N,N-dimethyl-4-(3-((R or S)-6-((R or S)-3,3,3-trifluoro-2-hydroxy-2-(2-methoxyphenyl)propanoyl)-6-azaspiro[2.5]octan-1-yl)propoxy)benzamide] | 41 | 81 | – | 6 | No IP | – | – | – | – |
| COc1cccc([C@](O)(C(=O)N2CCC3(CC2)C[C@H]3CCCOc2ccc(C(=O)N(C)C)c(Cl)c2)C(F)(F)F)c1 (single isomer, unassigned) [Example 14-4, 2-chloro-N,N-dimethyl-4-(3-((R or S)-6-((S or R)-3,3,3-trifluoro-2-hydroxy-2-(3-methoxyphenyl)propanoyl)-6-azaspiro[2.5]octan-1-yl)propoxy)benzamide] | 83 | 80 | – | 0 | No IP | – | – | – | – |
| COc1ccccc1[C@@](O)(C(=O)N1CCC2(CC1)C[C@@H]2CCCOc1ccc(C(=O)N(C)C)c(Cl)c1)C(F)(F)F (single isomer, unassigned) [Example 14-5, 2-chloro-N,N-dimethyl-4-(3-((S or R)-6-((R or S)-3,3,3-trifluoro-2-hydroxy-2-(2-methoxyphenyl)propanoyl)-6-azaspiro[2.5]octan-1-yl)propoxy)benzamide] | 10 | 118 | 231 | 50 | – | – | – | – | – |
| COc1cccc([C@@](O)(C(=O)N2CCC3(CC2)C[C@@H]3CCCOc2ccc(C(=O)N(C)C)c(Cl)c2)C(F)(F)F)c1 (single isomer, unassigned) [Example 14-6, 2-chloro-N,N-dimethyl-4-(3-((S or R)-6-((R or S)-3,3,3-trifluoro-2-hydroxy-2-(3-methoxyphenyl)propanoyl)-6-azaspiro[2.5]octan-1-yl)propoxy)benzamide] | 6 | 116 | 162 | 23 | – | – | – | – | – |
| COc1cccc([C@](O)(C(=O)N2CCC3(CC2)C[C@@H]3CCCOc2ccc(C(=O)N(C)C)c(Cl)c2)C(F)(F)F)c1 (single isomer, unassigned) [Example 14-7, 2-chloro-N,N-dimethyl-4-(3-((S or R)-6-((S or R)-3,3,3-trifluoro-2-hydroxy-2-(3-methoxyphenyl)propanoyl)-6-azaspiro[2.5]octan-1-yl)propoxyl)benzamide] | 9 | 100 | 186 | 46 | – | – | – | – | – |
| COc1cccc(C(O)(C(=O)N2CCC(C3CC3(C)COc3ccc(C(=O)N(C)C)c(Cl)c3)CC2)C(F)(F)F)c1 (single isomer, unassigned) [Example 16-1, 2-chloro-N,N-dimethyl-4-((1-methyl-2-(1-((R or S)-3,3,3-trifluoro-2-hydroxy-2-(3-methoxyphenyl)propanoyl)piperidin-4-yl)cyclopropyl)methoxy)benzamide] | 66 | 84 | 955 | 18 | – | – | – | – | – |
| CN(C)C(=O)c1ccc(OC(F)(F)CCCC2CCN(C(=O)C(O)(c3ccccc3)C(F)(F)F)CC2)cc1Cl (single isomer, unassigned) [Example 19-1, (R or S)-2-chloro-4-(1,1-difluoro-4-(1-(3,3,3-trifluoro-2-hydroxy-2-phenylpropanoyl)piperidin-4-yl)butoxy)-N,N-dimethylbenzamide] | 86 | 75 | – | – | – | 1170 | – | – | 23 |

Continued, in another order:

| EC50 [1] [nM] | Emax [1] [%] | EC50 [2, 3] [nM] | Emax [2, 4] [%] | LXR alpha IP [2, 5] | EC50 [2, 7] [nM] | EC50 ([2]; LXR alpha IP) [nM] | Emax [2, 8] [%] | Structure (SMILES) | Emax [2, 6] [%] |
| --- | --- | --- | --- | --- | --- | --- | --- | --- | --- |
| 19 | 88 | – | – | – | – | 506 | 28 | CN(C)C(=O)c1ccc(OCCC[C@H]2CC23CCN(C(=O)[C@](O)(c2ccccc2)C(F)(F)F)CC3)nc1Cl (single isomer, unassigned) [Example 15-1, 2-chloro-N,N-dimethyl-6-(3-((S or R)-6-((R or S)-3,3,3-trifluoro-2-hydroxy-2-phenylpropanoyl)-6-azaspiro[2.5]octan-1-yl)propoxy)nicotinamide] | – |
| 65 | 115 | – | 32 | – | 654 | – | – | CN(C)C(=O)c1ccc(OCCC[C@@H]2CC23CCN(C(=O)[C@@](O)(c2ccccc2)C(F)(F)F)CC3)nc1Cl (single isomer, unassigned) [Example 15-2, 2-chloro-N,N-dimethyl-6-(3-((R or S)-6-((S or R)-3,3,3-trifluoro-2-hydroxy-2-phenylpropanoyl)-6-azaspiro[2.5]octan-1-yl)propoxy)nicotinamide] | – |
| 188 | 77 | 1630 | 19 | – | – | – | – | CN(C)C(=O)c1ccc(OCC2(CC3CCN(C(=O)C(O)(c4ccccc4)C(F)(F)F)CC3)CC2)cc1Cl (single isomer, unassigned) [Example 17-1, (R or S)-2-chloro-N,N-dimethyl-4-((1-((1-(3,3,3-trifluoro-2-hydroxy-2-phenylpropanoyl)piperidin-4-yl)methyl)cyclopropyl)methoxy)benzamide] | – |
